Assays:
[1] = test system: plasma protein; details: cited from earlier work
[2] = molecular target: T1, human serum albumin (HSA) (Homo sapiens, UniProt P02768); details: dose-response, 500 nM Red Mega 500, 0.2 mg/mL HSA
[3] = molecular target: T1, human serum albumin (HSA); assay: biochemical

T1 sequence (P02768 25-609): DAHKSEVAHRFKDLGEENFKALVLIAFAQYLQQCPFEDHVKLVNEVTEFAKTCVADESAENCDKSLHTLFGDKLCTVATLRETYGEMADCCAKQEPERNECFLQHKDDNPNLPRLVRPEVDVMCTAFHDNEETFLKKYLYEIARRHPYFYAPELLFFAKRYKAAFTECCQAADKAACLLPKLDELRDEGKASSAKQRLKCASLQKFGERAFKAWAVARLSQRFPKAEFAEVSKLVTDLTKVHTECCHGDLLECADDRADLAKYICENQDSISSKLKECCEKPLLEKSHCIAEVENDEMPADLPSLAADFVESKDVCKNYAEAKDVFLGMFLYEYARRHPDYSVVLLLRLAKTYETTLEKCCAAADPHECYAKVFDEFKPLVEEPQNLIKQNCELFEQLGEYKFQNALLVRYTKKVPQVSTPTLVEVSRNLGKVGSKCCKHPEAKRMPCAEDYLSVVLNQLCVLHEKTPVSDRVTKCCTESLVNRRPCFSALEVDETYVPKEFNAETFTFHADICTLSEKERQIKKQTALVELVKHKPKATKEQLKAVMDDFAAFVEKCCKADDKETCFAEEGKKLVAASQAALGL

| efficacy of inhibition of HSA–Red Mega 500 binding [2] | IC50 [3] [µM] | SMILES | plasma protein binding class (low / medium / high) [1] |
| --- | --- | --- | --- |
| – | – | COc1ccc2[nH]c([S+]([O-])Cc3ncc(C)c(OC)c3C)nc2c1 (stereo not drawn) [omeprazole] | high |
| – | – | Cc1c(OCC(F)(F)F)ccnc1C[S+]([O-])c1nc2ccccc2[nH]1 (stereo not drawn) [lansoprazole] | high |
| weaker efficacy | 4.4 ± 1.9 | CC/C(=C(/CC)c1ccc(O)cc1)c1ccc(O)cc1 [diethylstilbestrol] | medium |
| – | – | CN1C(C(=O)Nc2ccccn2)=C(O)c2ccccc2S1(=O)=O [piroxicam] | high |

Reference: article PMC3959589 (Analytical and bioanalytical chemistry, 2014)
